Test results taken from patent US20230031406A1, “COMPOUNDS AND COMPOSITIONS FOR TREATING CONDITIONS ASSOCIATED WITH NLRP ACTIVITY” (Novartis AG, priority 2018, published 2023).

Each molecule was assayed on PMA-differentiated THP-1 cells (assay: IL-1β production in PMA-differentiated THP-1 cells stimulated with gramicidin (hTHP-1 assay containing 2% fetal bovine serum; Procedures 1 and 2)). Conditions: Homo sapiens, THP-1, Table B2; 2% fetal bovine serum; class symbols; read-out: hTHP-1 IC50.
Assay type: cell-based, human
In short: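 Compound titrations in 0.37% final DMSO were added to THP-1 cells that had been plated after 16-18 h PMA treatment, 50,000 per well in 2% FBS. One hour later the cells received gramicidin (5 μM, 2 h) and were centrifuged. HTRF detected IL-1β in the collected supernatants.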
Work on `Cc1c(C2CCC2)nc2c(c1NC(=O)N=S(N)(=O)c1cnc(C(C)(C)O)s1)CCC2` (single isomer, unassigned) [Compound 649a, (R) or (S)-N′-((2-cyclobutyl-3-methyl-6,7-dihydro-5H-cyclopenta[b]pyridin-4-yl)carbamoyl)-2-(2-hydroxypropan-2-yl)thiazole-5-sulfonimidamide] yielded an IC50 of 5 to 30 µM.
`CC(C)n1nc(S(N)(=O)=NC(=O)Nc2c3c(nc4c2CCC4(C)C)CCC3)cc1CO` (single isomer, unassigned) [Compound 652a] showed an IC50 of 0.2 to 1 µM.
With `CC(C)n1cc(S(N)(=O)=NC(=O)Nc2c3c(nc4c2CCC4(C)C)CCC3)c(CO)n1` (single isomer, unassigned) [Compound 653a, (R) or (S)-N′-((3,3-dimethyl-1,2,3,5,6,7-hexahydrodicyclopenta [b,e]pyridin-8-yl)carbamoyl)-3-(hydroxymethyl)-1-isopropyl-1H-pyrazole-4-sulfonimidamide] the IC50 was 5 to 30 µM.
`Cc1c(C(C)(C)C)nc2c(c1NC(=O)N=S(N)(=O)c1cc(C(C)(C)O)cs1)CCC2` (single isomer, unassigned) [Compound 657b, (R) or (S)-N′-((2-(tert-butyl)-3-methyl-6,7-dihydro-5H-cyclopenta[b]pyridin-4-yl)carbamoyl)-4-(2-hydroxypropan-2-yl)thiophene-2-sulfonimidamide] showed an IC50 of 5 to 30 µM.
Work on `Cc1c(C2CCC2)nc2c(c1NC(=O)N=S(N)(=O)c1cc(C(C)(C)O)cs1)CCC2` (single isomer, unassigned) [Compound 658b, (R) or (S)-N′-((2-cyclobutyl-3-methyl-6,7-dihydro-5H-cyclopenta[b]pyridin-4-yl)carbamoyl)-4-(2-hydroxypropan-2-yl)thiophene-2-sulfonimidamide] yielded an IC50 of 1 to 5 µM.

Same assay, conditions: Homo sapiens, THP-1, Table B2; 2% fetal bovine serum; numeric bounds; read-out: hTHP-1 IC50
In the case of `COC(C)(C)c1nc(CO)c(S(N)(=O)=NC(=O)Nc2c3c(nc4c2CCC4(C)C)CCC3)s1` (single isomer, unassigned) [Compound 648b, (S) or (R)-N′-((3,3-dimethyl-1,2,3,5,6,7-hexahydrodicyclopenta [b,e]pyridin-8-yl)carbamoyl)-4-(hydroxymethyl)-2-(2-methoxypropan-2-yl)thiazole-5-sulfonimidamide], the IC50 is reported as > 30 µM.
With `Cc1c(C2CCC2)nc2c(c1NC(=O)N=S(N)(=O)c1cnc(C(C)(C)O)s1)CCC2` (single isomer, unassigned) [Compound 649b, (S) or (R)-N′-((2-cyclobutyl-3-methyl-6,7-dihydro-5H-cyclopenta[b]pyridin-4-yl)carbamoyl)-2-(2-hydroxypropan-2-yl)thiazole-5-sulfonimidamide] the IC50 was > 30 µM.
In the case of `CC(C)n1nc(S(N)(=O)=NC(=O)Nc2c3c(nc4c2CCC4(C)C)CCC3)cc1CO` (single isomer, unassigned) [Compound 652b], the IC50 is reported as > 30 µM.
For `CC(C)n1cc(S(N)(=O)=NC(=O)Nc2c3c(nc4c2CCC4(C)C)CCC3)c(CO)n1` (single isomer, unassigned) [Compound 653b, (S) or (R)-N′-((3,3-dimethyl-1,2,3,5,6,7-hexahydrodicyclopenta [b,e]pyridin-8-yl)carbamoyl)-3-(hydroxymethyl)-1-isopropyl-1H-pyrazole-4-sulfonimidamide], the IC50 was > 30 µM.
With `Cc1c(C(C)(C)C)nc2c(c1NC(=O)N=S(N)(=O)c1cc(C(C)(C)O)cs1)CCC2` (single isomer, unassigned) [Compound 657a, (S) or (R)-N′-((2-(tert-butyl)-3-methyl-6,7-dihydro-5H-cyclopenta[b]pyridin-4-yl)carbamoyl)-4-(2-hydroxypropan-2-yl)thiophene-2-sulfonimidamide] the IC50 was > 30 µM.
In the case of `Cc1c(C2CCC2)nc2c(c1NC(=O)N=S(N)(=O)c1cc(C(C)(C)O)cs1)CCC2` (single isomer, unassigned) [Compound 658a, (S) or (R)-N′-((2-cyclobutyl-3-methyl-6,7-dihydro-5H-cyclopenta[b]pyridin-4-yl)carbamoyl)-4-(2-hydroxypropan-2-yl)thiophene-2-sulfonimidamide], the IC50 is reported as > 30 µM.

Same assay, conditions: Table B2; 2% fetal bovine serum; class symbols; read-out: hTHP-1 IC50
`Cc1c(C(C)C)nc2c(c1NC(=O)N=S(N)(=O)c1cnc(C(C)(C)O)s1)CCC2` (single isomer, unassigned) [Compound 650a, (R) or (S)-2-(2-Hydroxypropan-2-yl)-N′-((2-isopropyl-3-methyl-6,7-dihydro-5H-cyclopenta[b]pyridin-4-yl)carbamoyl)thiazole-5-sulfonimidamide] was tested, and the IC50 was 0.04 to 0.2 µM.
In the case of `Cc1c(C(C)C)nc2c(c1NC(=O)N=S(N)(=O)c1cnc(C(C)(C)O)s1)CCC2` (single isomer, unassigned) [Compound 650b, (S) or (R)-2-(2-Hydroxypropan-2-yl)-N′-((2-isopropyl-3-methyl-6,7-dihydro-5H-cyclopenta[b]pyridin-4-yl)carbamoyl)thiazole-5-sulfonimidamide], the IC50 is reported as 5 to 30 µM.
`Cc1c(C2CC2)nc2c(c1NC(=O)N=S(N)(=O)c1cc(C(C)(C)O)n(-c3ccccc3)n1)CCC2` (single isomer, unassigned) [Compound 651a, (S) or (R)-N′-((2-cyclopropyl-3-methyl-6,7-dihydro-5H-cyclopenta[b]pyridin-4-yl)carbamoyl)-5-(2-hydroxypropan-2-yl)-1-phenyl-1H-pyrazole-3-sulfonimidamide] showed an IC50 of 5 to 30 µM.
For `Cc1c(C2CC2)nc2c(c1NC(=O)N=S(N)(=O)c1cc(C(C)(C)O)n(-c3ccccc3)n1)CCC2` (single isomer, unassigned) [Compound 651b, (R) or (S)-N′-((2-cyclopropyl-3-methyl-6,7-dihydro-5H-cyclopenta[b]pyridin-4-yl)carbamoyl)-5-(2-hydroxypropan-2-yl)-1-phenyl-1H-pyrazole-3-sulfonimidamide], the IC50 was 1 to 5 µM.
`CCc1nc2c(c(NC(=O)N=S(N)(=O)c3cc(C(C)(C)O)cs3)c1C1CC1)CCC2` (single isomer, unassigned) [Compound 654a, (S) or (R)-N′-((3-cyclopropyl-2-ethyl-6,7-dihydro-5H-cyclopenta[b]pyridin-4-yl)carbamoyl)-4-(2-hydroxypropan-2-yl)thiophene-2-sulfonimidamide] was tested, and the IC50 was 1 to 5 µM.
Molecule `CCc1nc2c(c(NC(=O)N=S(N)(=O)c3cc(C(C)(C)O)cs3)c1C1CC1)CCC2` (single isomer, unassigned) [Compound 654b] has an IC50 of 0.2 to 1 µM.
Molecule `Cc1c(C2CC2)nc2c(c1NC(=O)N=S(N)(=O)c1cc(C(C)(C)O)cs1)CCC2C` (single isomer, unassigned) [Compound 656a, (R, R) or (R, S) or (S, R) or (S, S)-N′-((2-Cyclopropyl-3,7-dimethyl-6,7-dihydro-5H-cyclopenta[b]pyridin-4-yl)carbamoyl)-4-(2-hydroxypropan-2-yl)thiophene-2-sulfonimidamide] has an IC50 of 0.2 to 1 µM.
Molecule `Cc1c(C2CC2)nc2c(c1NC(=O)N=S(N)(=O)c1cc(C(C)(C)O)cs1)CCC2C` (single isomer, unassigned) [Compound 656b, (S, S) or (S, R) or (R, S) or (R, R)-N′-((2-Cyclopropyl-3,7-dimethyl-6,7-dihydro-5H-cyclopenta[b]pyridin-4-yl)carbamoyl)-4-(2-hydroxypropan-2-yl)thiophene-2-sulfonimidamide] has an IC50 of 5 to 30 µM.
For `Cc1c(C2CC2)nc2c(c1NC(=O)N=S(N)(=O)c1cc(C(C)(C)O)cs1)CCC2C` (single isomer, unassigned) [Compound 656c, (S, R) or (S, S) or (R, S) or (R, R)-N′-((2-Cyclopropyl-3,7-dimethyl-6,7-dihydro-5H-cyclopenta[b]pyridin-4-yl)carbamoyl)-4-(2-hydroxypropan-2-yl)thiophene-2-sulfonimidamide], the IC50 was 5 to 30 µM.
Molecule `Cc1c(C2CC2)nc2c(c1NC(=O)N=S(N)(=O)c1cc(C(C)(C)O)cs1)CCC2C` (single isomer, unassigned) [Compound 656d, (R, S) or (R, R) or (S, R) or (S, S)-N′-((2-Cyclopropyl-3,7-dimethyl-6,7-dihydro-5H-cyclopenta[b]pyridin-4-yl)carbamoyl)-4-(2-hydroxypropan-2-yl)thiophene-2-sulfonimidamide] has an IC50 of 1 to 5 µM.
Work on `CC1(C)CCc2c1nc1c(c2NC(=O)N=S(N)(=O)c2ccn(-c3ccccc3)n2)CCC1` (single isomer, unassigned) [Compound 659a, (S) or (R)-N′-((3,3-dimethyl-1,2,3,5,6,7-hexahydrodicyclopenta [b,e]pyridin-8-yl)carbamoyl)-1-phenyl-1H-pyrazole-3-sulfonimidamide] yielded an IC50 of 5 to 30 µM.
`CC1(C)CCc2c1nc1c(c2NC(=O)N=S(N)(=O)c2ccn(-c3ccccc3)n2)CCC1` (single isomer, unassigned) [Compound 659b, (R) or (S)-N′-((3,3-dimethyl-1,2,3,5,6,7-hexahydrodicyclopenta [b,e]pyridin-8-yl)carbamoyl)-1-phenyl-1H-pyrazole-3-sulfonimidamide] was tested, and the IC50 was 0.2 to 1 µM.

Same assay, conditions: Table B2; 2% fetal bovine serum; numeric bounds; read-out: hTHP-1 IC50
In the case of `CC1CCc2c1nc1c(c2NC(=O)N=S(N)(=O)c2cn(C(C)C)cn2)CCC1` (single isomer, unassigned) [Compound 660a, (R, S) or (S, S) or (S, R) or (R, R)-1-Isopropyl-N′-((3-metliyl-1,2,3,5,6,7-hexahydrodicyclopenta [b,e]pyridin-8-yl)carbamoyl)-1H-imidazole-4-sulfonimidamide], the IC50 is reported as > 30 µM.
With `CC1CCc2c1nc1c(c2NC(=O)N=S(N)(=O)c2cn(C(C)C)cn2)CCC1` (single isomer, unassigned) [Compound 660b, (S, S) or (R, S) or (S, R) or (R, R)-1-Isopropyl-N′-((3-methyl-1,2,3,5,6,7-hexahydrodicyclopenta [b,e]pyridin-8-yl)carbamoyl)-1H-imidazole-4-sulfonimidamide] the IC50 was > 30 µM.
